According to patent publication US12433908B2, “Use of nicotinamide riboside, nicotinic acid riboside, and nicotinamide mononucleotide, reduced nicotinyl compounds, and nicotinoyl compound derivatives in infant formula for healthy development” (ChromaDex, Inc., priority 2016, dated 2025):

Assay: Body weight of early-weaned piglets given NR solution
Type: in vivo, piglets (Yorkshire/Hampshire crossbred)
Text: Sixteen (n=16) Yorkshire/Hampshire crossbred piglets were obtained from the University of California, Davis Swine Teaching and Research Center and received on lactation day (“LD”) 14. Prior to arrive, the piglets were processed by the suppler between 1-3 days of age by administration of iron and an antibiotic (Excede for swine) as is common practice at the University of California, Davis Swine Facility. It is not common practice at the University of California, Davis Swine Facility to give a second dose of iron and antibiotics unless it becomes necessary.
The piglets were from two litters (litters 15 and 17), weaned at 17 days of age, and randomly placed into one of two groups balanced for litter, sex, and weight. The animals were not acclimated to the facility at arrival and were subsequently acclimated to the test diet administration system. The piglets were weaned into a temperature-controlled room (approximately 27-29° C.) that contained 10 adjacent pens. The piglets were group-housed in the nursery room at the Swine Facility, which is an enclosed room with access restricted to trained personnel. The two groups were separated by one pen containing piglets of similar age.
Each morning enough nicotinamide riboside (NR, I) in water solution was prepared for that day's dose administration according to the dose preparation protocol. At least 5 mL of prepared dose was reserved and immediately frozen after preparation each day for analysis of nicotinamide riboside (NR, I) for the purpose of confirming stability of the dose material. The doses were stored at refrigeration temperature while not in use. Nicotinamide riboside (NR, I) was dosed once per day in the morning and at the same time each day. Piglets in the control group received the same volume of plain water and were dosed on the same schedule.
The daily amount of nicotinamide riboside (NR, I) approximated the dose (33 mg/kg) used in human investigations of efficacy in areas of mitochondrial dysfunction converted to piglet equivalent dose using the body surface area method. See A. B. Nair & S. Jacob, A simple practice guide for dose conversion between animals and human, 7 J. BASIC CLIN. PHARMA 27 (2016), incorporated by reference herein in its entirety.
Starting on Day 1, animals in the nicotinamide riboside (NR, I) group were dosed once daily (in the morning) with 277 mg nicotinamide riboside (NR, I) per pig resuspended in water for seven days. After one week, animals were dosed once daily with 342 mg nicotinamide riboside (NR, I) per pig delivered in 2.5 mL for seven days. For Days 1 and 2, the nicotinamide riboside (NR, I) solution was prepared by resuspending 2770 mg nicotinamide riboside (NR, I) in 50 mL water, and 5 mL of this solution was delivered to each pig by squirting it into the back of the mouth using a 10 mL syringe with a piece of tubing attached to the end. To reduce the volume to more efficiently deliver the nicotinamide riboside (NR, I) solution, the 2770 mg was resuspended in 25 mL water and 2.5 mL of the solution was squirted into the back of the mouth of each pig using a 3 mL syringe for Days 3-7. […]
All animals were weighed at weaning (baseline) and after one and two weeks of nicotinamide riboside (NR, I) supplementation. Fecal and activity scores were recorded daily using the scales listed below. Weights and fecal scores were analyzed using a two-factor repeated measures ANOVA (mixed-model ANOVA) with p values<0.05 considered significant. […]

With `NC(=O)c1ccc[n+]([C@@H]2O[C@H](CO)[C@@H](O)[C@H]2O)c1` [NR, Nicotinamide riboside] the “health, nutritional quality, normal growth of piglets weaned 7 days early” value (2-week feeding of NR) was “did not negatively impact the health, nutritional quality, or normal growth”, the Weight (Baseline, before dosing) was 7.77 ± 1.33 kg and the “body weight, NR vs. control” value (Week 1 or Week 2 of treatment) was “no differences in body weight”. It also gave a Weight (Wk 1, 277 mg/pig once daily oral) of 8.33 ± 1.56 kg and a Weight (Wk 2, 342 mg/pig once daily oral Days 8-14) of 9.39 ± 1.61 kg.
